# Assay results taken from patent US7150974B1, “Parathyroid hormone receptor binding method” (The General Hospital Corporation, priority 1991, dated 2006).
# Experiments:
# [1] = target: T1, carboxy-terminally-truncated rat receptor, R480 (Rattus norvegicus, UniProt P25961); assay: Binding to carboxy-terminally-truncated rat receptor R480 in COS-7 and CHO cells; conditions: COS-7 (transient) and CHO (stable) cells
# T1 construct: R480, by standard PCR technology using R15B as a template and an upstream primer containing a stop codon inserted at position 481; expressed in transfected cells
# T1 sequence (P25961 27-480): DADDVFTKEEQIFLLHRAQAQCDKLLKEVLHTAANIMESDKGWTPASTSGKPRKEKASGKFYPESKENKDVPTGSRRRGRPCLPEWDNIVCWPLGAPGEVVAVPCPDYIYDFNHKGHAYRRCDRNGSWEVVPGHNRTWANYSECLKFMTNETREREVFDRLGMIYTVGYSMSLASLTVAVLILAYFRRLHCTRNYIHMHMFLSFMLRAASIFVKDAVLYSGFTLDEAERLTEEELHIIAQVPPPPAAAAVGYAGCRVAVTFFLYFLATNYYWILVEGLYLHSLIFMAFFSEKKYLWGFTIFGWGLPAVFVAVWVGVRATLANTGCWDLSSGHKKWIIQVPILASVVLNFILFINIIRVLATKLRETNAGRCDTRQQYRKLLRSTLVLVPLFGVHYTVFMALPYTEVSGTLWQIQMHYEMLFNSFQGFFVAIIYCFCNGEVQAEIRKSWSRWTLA
# Description: [Nle^8,Nle^18,Tyr^34]bPTH-(1-34)amide (NlePTH), and [Tyr^36]PTHrP(1-36)amide(PTHrP) were iodinated with Na^125I (carrier free, New England Nuclear, Boston, Mass.) as previously reported (Segre et al., J. Biol. Chem. 254: 6980, 1979), and purified by reverse-phase HPLC. In brief, the labeled peptide was dissolved in 0.1% trifluoracetic acid (TFA), applied to a C18 Sep-pak cartridge (Waters Associates, Inc., Milford, Mass.) and eluted with a solution of 60% acetonitrile in 0.1% TFA. After lyophilization, the radioligand then was applied to C18-μBondapak column (3.9 mm×30 cm. Waters Associates) and eluted over 30 min with a linear gradient of 30-50% acetonitrile-0.1% TFA at a flow rate of 2 ml/min. The radioligand eluted in two peaks; the first peak, which eluted at approximately 38% acetonitrile, was used in these studies because it gave higher total and specific bindings. […]
# (§1) Incubations were terminated by aspirating the buffer, and repeatedly (×3) washing the culture dishes, containing the adherent cells with chilled 0.9% NaCl solution, over a 15 sec period. Cell-bound radioactivity was recovered by the sequential addition (×3) of 1 N NaOH (200 μl) to each well. […] A second and third extraction with 1 N NaOH (200 μl) were combined with the first, and the total radioactivity was counted in a γ-spectrometer (Packard Instruments, Downers Grove, Ill.). […]
# [2] = target: T2, opossum kidney PTH/PTHrp receptor clone, OK-O (Didelphis virginiana, UniProt P25107, I132F/S86P); assay: Radioreceptor assay, COS cells expressing OK-O; format: binding; conditions: FIG. 11
# T2 construct: expressed in transfected cells; host or cells: COS cells, transient, plasmid OK-O (pcDNA I)
# T2 sequence (P25107 27-585 S86P/I132F): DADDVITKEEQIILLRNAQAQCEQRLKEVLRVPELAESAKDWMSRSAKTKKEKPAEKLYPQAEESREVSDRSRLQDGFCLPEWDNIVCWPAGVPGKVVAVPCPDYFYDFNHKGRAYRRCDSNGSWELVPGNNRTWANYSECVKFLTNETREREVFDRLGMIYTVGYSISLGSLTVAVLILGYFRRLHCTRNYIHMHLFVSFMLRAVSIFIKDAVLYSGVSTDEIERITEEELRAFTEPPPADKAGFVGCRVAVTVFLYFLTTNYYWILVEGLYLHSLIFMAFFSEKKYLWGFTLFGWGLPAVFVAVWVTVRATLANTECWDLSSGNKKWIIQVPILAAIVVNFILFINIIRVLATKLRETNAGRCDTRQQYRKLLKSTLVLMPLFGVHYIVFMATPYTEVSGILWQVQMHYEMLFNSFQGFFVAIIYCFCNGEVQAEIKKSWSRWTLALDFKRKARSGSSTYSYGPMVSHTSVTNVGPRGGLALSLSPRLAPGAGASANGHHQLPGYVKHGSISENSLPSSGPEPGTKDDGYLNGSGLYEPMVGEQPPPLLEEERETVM
# Description: [Nle^8,Nle^18,Tyr^34]bPTH-(1-34)amide (NlePTH), and [Tyr^36]PTHrP(1-36)amide(PTHrP) were iodinated with Na^125I (carrier free, New England Nuclear, Boston, Mass.) as previously reported (Segre et al., J. Biol. Chem. 254: 6980, 1979), and purified by reverse-phase HPLC. In brief, the labeled peptide was dissolved in 0.1% trifluoracetic acid (TFA), applied to a C18 Sep-pak cartridge (Waters Associates, Inc., Milford, Mass.) and eluted with a solution of 60% acetonitrile in 0.1% TFA. After lyophilization, the radioligand then was applied to C18-μBondapak column (3.9 mm×30 cm. Waters Associates) and eluted over 30 min with a linear gradient of 30-50% acetonitrile-0.1% TFA at a flow rate of 2 ml/min. The radioligand eluted in two peaks; the first peak, which eluted at approximately 38% acetonitrile, was used in these studies because it gave higher total and specific bindings. The specific activity was 500±75 mCi/mg, which corresponds to an average iodine-peptide ratio of 1.
# COS-7 cells were grown in 15 cm plates in DMEM, 10% heat-inactivated […], 10 mg/L gentamycin until 80-90% confluent. Twenty-four hours after transfection by the DEAE/Dextran method (Sambrook et al., supra), with 1-2 μg of plasmid DNA, the cells were trypsinized and replated in multiwell plastic dishes (16 or 35 mm diameter, Costar, Cambridge, Mass.) at a cell concentration of 5×10^4 cells/cm^2). Cell number increased only slightly after transfection. After continuing culture for another 48 h, radiorecepter assays were performed. […]
# as §1
substance,measurement,setting,value
"[Nle^8,18, Tyr^34]bPTH(1-34)amide",affinity for truncated receptor R480 compared with wild type receptor RB,[1],equivalent affinities
same,inhibition of 125I-PTHrP binding by competitor,[2],inhibited
